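Values below derive from 48-hour exposures of cells grown in 96-well plates, with endpoints linearly interpolated between the two concentrations bracketing the appropriate inhibition level. GI50: concentration for 50% inhibition of growth.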 Active and inactive are the calls of the source. Rule as the data show it: active = GI50 up to about 1.1 µM and inactive = higher.
Key:
Assay in all cases: NCI anticancer screen, dose series, 48 h
786-0 = tested on: 786-0
A498 = tested on: A498
A549 = tested on: A549
ACHN = tested on: ACHN
BT-549 = tested on: BT-549
CAKI-1 = tested on: CAKI-1
CCRF-CEM = tested on: CCRF-CEM
COLO 205 = tested on: COLO 205
EKVX = tested on: EKVX
HCC 2998 = tested on: HCC 2998
HCT-116 = tested on: HCT-116
HCT-15 = tested on: HCT-15
HL-60 = tested on: HL-60
HOP-62 = tested on: HOP-62
HOP-92 = tested on: HOP-92
HT-29 = tested on: HT-29
Hs-578T = tested on: Hs-578T
IGROV-1 = tested on: IGROV-1
K562 = tested on: K562
KM12 = tested on: KM12
LOX IMVI = tested on: LOX IMVI
M14 = tested on: M14
MCF7 = tested on: MCF7
MDA-MB-231 = tested on: MDA-MB-231
MDA-MB-435 = tested on: MDA-MB-435
MDA-N = tested on: MDA-N
MOLT-4 = tested on: MOLT-4
Malme-3M = tested on: Malme-3M
NCI-H23 = tested on: NCI-H23
NCI-H460 = tested on: NCI-H460
NCI-H522 = tested on: NCI-H522
NCI/ADR-RES = tested on: NCI/ADR-RES
OVCAR-3 = tested on: OVCAR-3
OVCAR-4 = tested on: OVCAR-4
OVCAR-5 = tested on: OVCAR-5
OVCAR-8 = tested on: OVCAR-8
PC-3 = tested on: PC-3
RPMI-8226 = tested on: RPMI-8226
SF-268 = tested on: SF-268
SF-295 = tested on: SF-295
SK-MEL-28 = tested on: SK-MEL-28
SK-MEL-2 = tested on: SK-MEL-2
SK-MEL-5 = tested on: SK-MEL-5
SK-OV-3 = tested on: SK-OV-3
SN12C = tested on: SN12C
SNB-19 = tested on: SNB-19
SNB-75 = tested on: SNB-75
SR = tested on: SR
SW-620 = tested on: SW-620
T47D = tested on: T47D
TK-10 = tested on: TK-10
U-251 = tested on: U-251
UACC-257 = tested on: UACC-257
UACC-62 = tested on: UACC-62
UO-31 = tested on: UO-31
DU-145 = tested on: DU-145
NCI-H226 = tested on: NCI-H226
RXF 393 = tested on: RXF 393

Measured: GI50

CC(=O)OCC1OC(O/C=C(\CN=[N+]=[N-])C(C)=O)C(OC(C)=O)C(OC(C)=O)C1OC(C)=O (stereo not given)
3.94 µM: HCT-15
inactive: 786-0 5.38 µM | A498 20.3 µM | A549 20.7 µM | ACHN 3.4 µM | BT-549 13.4 µM | CAKI-1 3.01 µM | CCRF-CEM 1.39 µM | COLO 205 1.74 µM | EKVX 14.7 µM | HCC 2998 19 µM | HCT-116 3.51 µM | HL-60 2.03 µM | HOP-62 25.6 µM | HOP-92 6.15 µM | HT-29 11.4 µM | Hs-578T 52.6 µM | IGROV-1 15.6 µM | K562 5.02 µM | KM12 18.7 µM | LOX IMVI 3.47 µM | M14 8 µM | MCF7 7.62 µM | MDA-MB-231 12.7 µM | MDA-MB-435 4.57 µM | MDA-N 8.85 µM | MOLT-4 2.53 µM | Malme-3M 3.05 µM | NCI-H23 9.44 µM | NCI-H460 21.6 µM | NCI-H522 1.79 µM | NCI/ADR-RES 21 µM | OVCAR-3 8.59 µM | OVCAR-4 12.5 µM | OVCAR-5 16.5 µM | OVCAR-8 6.01 µM | PC-3 12 µM | RPMI-8226 1.74 µM | SF-268 21.6 µM | SF-295 37.2 µM | SK-MEL-28 18.9 µM | SK-MEL-2 16.1 µM | SK-MEL-5 13.2 µM | SK-OV-3 45 µM | SN12C 7.96 µM | SNB-19 27.6 µM | SNB-75 13.5 µM | SR 2.37 µM | SW-620 3.53 µM | T47D 3.67 µM | TK-10 6.19 µM | U-251 12.2 µM | UACC-257 3.56 µM | UACC-62 11.6 µM | UO-31 8.28 µM

Cc1c(Cl)c(S(N)(=O)=O)cc2c1N=CNS2(=O)=O
inactive: 786-0 > 100 µM | A498 > 100 µM | A549 > 100 µM | ACHN > 100 µM | BT-549 > 100 µM | CAKI-1 > 100 µM | CCRF-CEM > 100 µM | COLO 205 > 100 µM | DU-145 > 100 µM | HCC 2998 > 100 µM | HCT-116 > 100 µM | HOP-62 > 100 µM | HOP-92 > 100 µM | HT-29 > 100 µM | Hs-578T > 100 µM | IGROV-1 > 100 µM | K562 > 100 µM | KM12 > 100 µM | LOX IMVI > 100 µM | M14 > 100 µM | MCF7 > 100 µM | MDA-MB-231 > 100 µM | MDA-MB-435 > 100 µM | MDA-N > 100 µM | MOLT-4 > 100 µM | Malme-3M > 100 µM | NCI-H226 > 100 µM | NCI-H23 > 100 µM | NCI-H460 > 100 µM | NCI-H522 > 100 µM | NCI/ADR-RES > 100 µM | OVCAR-3 > 100 µM | OVCAR-4 > 100 µM | OVCAR-5 > 100 µM | OVCAR-8 > 100 µM | PC-3 > 100 µM | RPMI-8226 > 100 µM | RXF 393 > 100 µM | SF-268 > 100 µM | SF-295 > 100 µM | SK-MEL-28 > 100 µM | SK-MEL-5 > 100 µM | SK-OV-3 > 100 µM | SN12C > 100 µM | SNB-19 > 100 µM | SNB-75 > 100 µM | SW-620 > 100 µM | T47D > 100 µM | TK-10 > 100 µM | U-251 > 100 µM | UACC-257 > 100 µM | UACC-62 > 100 µM | UO-31 > 100 µM
active: EKVX 0.507 µM
> 100 µM: HCT-15
